Results reported in ChEMBL document CHEMBL3885881, “DrugMatrix”.

Species on record: Rattus norvegicus
Test: DrugMatrix - Regimen: Daily Repeat
Type: toxicity, organism-based, Sprague-Dawley
Parameters: regimen Daily Repeat, gender Male, age 6-8 weeks
Conditions: in vivo, iv, vehicle 100 % SALINE; for ABSOLUTE BASOPHIL / ABSOLUTE EOSINOPHIL / ABSOLUTE LYMPHOCYTE / ABSOLUTE MONOCYTE / ABSOLUTE SEGMENTED NEUTROPHIL / BASOPHIL / EOSINOPHIL / ERYTHROCYTE COUNT / HEMATOCRIT / HEMOGLOBIN / LEUKOCYTE COUNT / LYMPHOCYTE / MEAN CORPUSCULAR HEMOGLOBIN / MEAN CORPUSCULAR HEMOGLOBIN CONCENTRATION / MEAN CORPUSCULAR VOLUME / MONOCYTE / NEUTROPHIL / NUCLEATED RED BLOOD CELLS / PLATELET COUNT: tissue Blood; for ALANINE AMINOTRANSFERASE / ALBUMIN / ALKALINE PHOSPHATASE / ASPARTATE AMINOTRANSFERASE / BLOOD UREA NITROGEN / CARBON DIOXIDE / CHLORIDE / CHOLESTEROL / CREATINE PHOSPHOKINASE / CREATININE / GLUCOSE / LACTATE DEHYDROGENASE / LIPASE / PHOSPHORUS / POTASSIUM / SODIUM / TOTAL BILIRUBIN / TOTAL PROTEIN / URIC ACID: tissue Plasma
[1] = 0 mg/kg, 72 h, dose level Control, time 3 day
[2] = 0 mg/kg, 120 h, dose level Control, time 5 day
[3] = 29 mg/kg, 72 h, dose level Low, time 3 day

## C[n+]1ccccc1/C=N/O.[Cl-] [PRALIDOXIME CHLORIDE]
[1]
  ABSOLUTE BASOPHIL: 0 CELLS/uL
  ABSOLUTE EOSINOPHIL: 53.17 CELLS/uL
  ABSOLUTE LYMPHOCYTE: 13731.5 CELLS/uL
  ABSOLUTE MONOCYTE: 186.17 CELLS/uL
  ABSOLUTE SEGMENTED NEUTROPHIL: 1645.83 CELLS/uL
  BASOPHIL: 0%
  EOSINOPHIL: 0.33%
  ERYTHROCYTE COUNT: 5.57 x10E6/uL
  HEMATOCRIT: 36.33%
  HEMOGLOBIN: 13.47 G/DL
  LEUKOCYTE COUNT: 15.62 x10E3/uL
  LYMPHOCYTE: 88.5%
  MEAN CORPUSCULAR HEMOGLOBIN: 24.22 pg
  MEAN CORPUSCULAR HEMOGLOBIN CONCENTRATION: 37.1 G/DL
  MEAN CORPUSCULAR VOLUME: 65.35 fL
  MONOCYTE: 1.17%
  NEUTROPHIL: 10%
  NUCLEATED RED BLOOD CELLS: 0.17 /100WBC
  PLATELET COUNT: 1295.5 x10E3/uL
  ALANINE AMINOTRANSFERASE: 46.83 u/L
  ALBUMIN: 4.37 G/DL
  ALKALINE PHOSPHATASE: 414.33 u/L
  ASPARTATE AMINOTRANSFERASE: 72.5 u/L
  BLOOD UREA NITROGEN: 17 mg/dL
  CARBON DIOXIDE: 23.5 mmol/L
  CHLORIDE: 102 MEQ/L
  CHOLESTEROL: 80.33 mg/dL
  CREATINE PHOSPHOKINASE: 207.83 u/L
  CREATININE: 0.22 mg/dL
  GLUCOSE: 172.17 mg/dL
  LACTATE DEHYDROGENASE: 131 u/L
  LIPASE: 10.33 u/L
  PHOSPHORUS: 11.75 mg/dL
  POTASSIUM: 6.83 MEQ/L
  SODIUM: 145.28 MEQ/L
  TOTAL BILIRUBIN: 0.22 mg/dL
  TOTAL PROTEIN: 6.22 G/DL
  URIC ACID: 1.9 mg/dL
[2]
  ABSOLUTE BASOPHIL: 0 CELLS/uL
  ABSOLUTE EOSINOPHIL: 33 CELLS/uL
  ABSOLUTE LYMPHOCYTE: 12184 CELLS/uL
  ABSOLUTE MONOCYTE: 108 CELLS/uL
  ABSOLUTE SEGMENTED NEUTROPHIL: 958.33 CELLS/uL
  BASOPHIL: 0%
  EOSINOPHIL: 0.17%
  ERYTHROCYTE COUNT: 5.9 x10E6/uL
  HEMATOCRIT: 36.58%
  HEMOGLOBIN: 13.33 G/DL
  LEUKOCYTE COUNT: 13.28 x10E3/uL
  LYMPHOCYTE: 91.17%
  MEAN CORPUSCULAR HEMOGLOBIN: 22.67 pg
  MEAN CORPUSCULAR HEMOGLOBIN CONCENTRATION: 36.47 G/DL
  MEAN CORPUSCULAR VOLUME: 62.13 fL
  MONOCYTE: 0.83%
  NEUTROPHIL: 7.83%
  NUCLEATED RED BLOOD CELLS: 0.33 /100WBC
  PLATELET COUNT: 1475.33 x10E3/uL
  ALANINE AMINOTRANSFERASE: 47 u/L
  ALBUMIN: 4.35 G/DL
  ALKALINE PHOSPHATASE: 368.33 u/L
  ASPARTATE AMINOTRANSFERASE: 90.83 u/L
  BLOOD UREA NITROGEN: 15.5 mg/dL
  CARBON DIOXIDE: 26.5 mmol/L
  CHLORIDE: 103.33 MEQ/L
  CHOLESTEROL: 71.83 mg/dL
  CREATINE PHOSPHOKINASE: 585.33 u/L
  CREATININE: 0.19 mg/dL
  GLUCOSE: 171.17 mg/dL
  LACTATE DEHYDROGENASE: 388.83 u/L
  LIPASE: 10.83 u/L
  PHOSPHORUS: 11.75 mg/dL
  POTASSIUM: 6.21 MEQ/L
  SODIUM: 143.7 MEQ/L
  TOTAL BILIRUBIN: 0.17 mg/dL
  TOTAL PROTEIN: 6.17 G/DL
  URIC ACID: 1.98 mg/dL
[3]
  ABSOLUTE BASOPHIL: 0 CELLS/uL
  ABSOLUTE EOSINOPHIL: 0 CELLS/uL
  ABSOLUTE LYMPHOCYTE: 13602.67 CELLS/uL
  ABSOLUTE MONOCYTE: 59 CELLS/uL
  ABSOLUTE SEGMENTED NEUTROPHIL: 1538.33 CELLS/uL
  BASOPHIL: 0%
  EOSINOPHIL: 0%
  ERYTHROCYTE COUNT: 5.23 x10E6/uL
  HEMATOCRIT: 33.13%
  HEMOGLOBIN: 12.77 G/DL
  LEUKOCYTE COUNT: 15.2 x10E3/uL
  LYMPHOCYTE: 89.67%
  MEAN CORPUSCULAR HEMOGLOBIN: 24.4 pg
  MEAN CORPUSCULAR HEMOGLOBIN CONCENTRATION: 38.53 G/DL
  MEAN CORPUSCULAR VOLUME: 63.37 fL
  MONOCYTE: 0.33%
  NEUTROPHIL: 10%
  NUCLEATED RED BLOOD CELLS: 0.33 /100WBC
  PLATELET COUNT: 1243.67 x10E3/uL
  ALANINE AMINOTRANSFERASE: 60 u/L
  ALBUMIN: 4.27 G/DL
  ALKALINE PHOSPHATASE: 485.33 u/L
  ASPARTATE AMINOTRANSFERASE: 76.33 u/L
  BLOOD UREA NITROGEN: 18.67 mg/dL
  CARBON DIOXIDE: 25 mmol/L
  CHLORIDE: 104.67 MEQ/L
  CHOLESTEROL: 77.67 mg/dL
  CREATINE PHOSPHOKINASE: 170 u/L
  CREATININE: 0.26 mg/dL
  GLUCOSE: 180.67 mg/dL
  LACTATE DEHYDROGENASE: 87.67 u/L
  LIPASE: 11 u/L
  PHOSPHORUS: 13.93 mg/dL
  POTASSIUM: 6.97 MEQ/L
  SODIUM: 146.7 MEQ/L
  TOTAL BILIRUBIN: 0.23 mg/dL
  TOTAL PROTEIN: 5.97 G/DL
  URIC ACID: 1.47 mg/dL
